In data set [1] the test system is lung cancer (A-549). Description: Antiproliferative MTT assay, A-549. It is filed as cell-based. To be noted: Homo sapiens, A549, A-549 lung cancer cells, read-out: Antiproliferative activity IC50 ± SEM, A-549. As to the method: (§1) The median inhibitory concentration (IC50) and GI50 (mean IC50) for the four cancer cell lines were calculated. Appendix A ^† contains more details. […]
(Formazan colour is commonly taken as a measure of viable cells.)

In data set [2] the test system is four human cancer cell lines (A-549, MCF-7, Panc-1, HT-29). Description: Antiproliferative MTT assay, mean over the four cancer cell lines. Particulars: Homo sapiens, mean IC50 over A-549, MCF-7, Panc-1, HT-29. It is filed as cell-based. The method, then: as §1
Data set [3] relates to A-549 cells. Description: Apoptosis induction assay, annexin V/PI, in A-549. It counts as cell-based, human. To be noted: A-549, annexin V/PI, 24 hours. The method, then:
(§2) The impact of compound 8g on cell cycle progression and apoptosis induction was examined in A-549 cells. […] We stained the cell line with PI/annexin V and performed flow cytometry using a BD FACS Caliber.[41] Refer to Appendix A ^† for more details.
A-549 cells was stained with annexin V/PI, cultured for 24 hours, and analyzed them to examine 8g's capacity to cause apoptosis.
Avoid direct exposure to intense light. The point, at which the substrate reaction is stopped, is often determined by the ELISA reader. Many ELISA readers record absorbance only up to 2.0
O.D. Therefore, the color development within individual microwells must be watched by the person running the assay and the substrate reaction stopped before positive wells are no longer properly detectable. […] Results must be read immediately after the Stop Solution is added or within one hour if the microwell strips are stored at 2 - 8°C in the dark. Read absorbance of each microwell on a spectrophotometer using 450 nm as the primary wavelength. […]
Apoptosis was determined by flow cytometry based on the Annexin-V-fluoresce in isothiocyanate (FITC) and propidium iodide (PI) staining kit (BD Pharmingen, San Diego, USA).
(FITC) and propidium iodide (PI) staining kit (BD Pharmingen, San Diego, USA). […] Subsequently, cells were analyzed by flow cytometry (Becton Dickinson, Franklin Lakes, and USA).

Data set [4] has as its system A-549 cells. Description: Cell cycle analysis by flow cytometry in A-549. It is filed as cell-based, human. Particulars: A-549, IC50 concentration of 8g, 24 hours.
From the text: as §2
The effects of 8g on cell cycle progression and apoptosis induction in A-549 cells were examined. […] We stained the cell line with PI/annexin V and performed flow cytometry using a BD FACS Caliber.[41] […] This means a cell cycle arrest at the G1 transition.

Data set [5] in a line: Cell viability MTT assay on MCF-10A normal cells. It is filed as cell-based. Particulars: human, MCF-10A normal mammary gland epithelial cells, MCF-10A cells, four days of incubation. The method, then:
The viability of new compounds 8a–t was evaluated using the MCF-10A normal human mammary gland epithelial cell line. The cell viability of compounds 8a–t was examined using the MTT assay[36] after four days of incubation with MCF-10A cells. For more details, see Appendix A (ESI file). ^† […]
We evaluated the viability of new compounds 8a–t using the MCF-10A normal human mammary gland epithelial cell line. The cell viability of compounds 8a–t was examined using the MTT assay[36] after four days of incubation with MCF-10A cells.
4.2. Biological evaluation
4.2.1. Cytotoxic activity using MTT Assay and evaluation of IC 50
MTT assay was carried out to study the effect of compounds on mammary epithelial cells (MCF-10A). The medium in which cells were propagated contained Dulbecco's modified Eagle's medium (DMEM)/ Ham's F-12 medium (1:1) supplemented with epidermal growth factor (20 ng/mL), hydrocortisone (500 ng/mL), insulin (10 μg/mL), 2 mM glutamine and 10% foetal calf serum.
After every 2-3 days, the cells were passaged using trypsin ethylenediamine tetra acetic acid (EDTA). The cells were seeded at a density of 10^4 cells mL-1 in flat-bottomed culture plates containing 96 wells each. After 24 h, medium was removed from the plates and the compounds in (in 0.1% DMSO) were added (in 200 μL medium to yield a final concentration of 0.1% v/v) to the wells of plates. A single compound was designated with four wells followed by incubation of plates for 96h at 37°C. After incubation, medium was removed completely from the plates followed by addition of MTT (0.4 mg/mL in medium) to each well and subsequent incubation of plates for 3h. MTT (along with the medium) was removed and DMSO (150μL) was added to each well of the culture plates, followed by vortexing and subsequent measurement of absorbance (at 540 nm) using microplate reader. The data are shown as percentage inhibition of proliferation in comparison with controls containing 0.1% DMSO. […]

In the case of `COc1ccc(-n2cc(CSc3nc4ccccc4c(=O)n3-c3ccc(C)cc3)nn2)cc1` [Compound 8g, 2-(((1-(4-Methoxyphenyl)-1H-1,2,3-triazol-4-yl)methyl)thio)-3-(p-tolyl)quinazolin-4(3H)-one], the half-inhibitory concentration (IC50) in data set [1] stood at 22 ± 1 nM. The same compound gave a GI50 in data set [2] of 22 nM. Besides, the Necrosis percentage in data set [3] is recorded as 4.39%. Also, the “Cells in G0/G1 phase (%DIP G1)” value in data set [4] came out at 86%. This compound also registered a viability at 4 days, 50 µM in data set [5] of 88%.

Take `Cc1ccc(-n2cc(CSc3nc4ccccc4c(=O)n3-c3ccc(C)cc3)nn2)cc1` [Compound 8h, 2-(((1-(p-Tolyl)-1H-1,2,3-triazol-4-yl)methyl)thio)-3-(p-tolyl)quinazolin-4(3H)-one]: in data set [1], the IC50 worked out at 25 ± 1 nM. Also, the GI50 in data set [2] came to 25 nM. For the same compound, in data set [5], the viability at 4 days, 50 µM worked out at 92%.

One may read the IC50 as the concentration at which inhibition is half-maximal. One may read the GI50 as the concentration giving 50% growth inhibition. Low values mean greater sensitivity of the cells, high ones lower sensitivity of the cells. A word on the viability: it is a read-out of living cells in per cent, often relative to untreated cells. Higher therefore signals better survival.

For the origin of these results see publication PMC11618052, “Design, synthesis, and antiproliferative activity of new 1,2,3-triazole/quinazoline-4-one hybrids as dual EGFR/BRAF^V600E inhibitors” (RSC Advances, 2024).
